Laboratory results taken from patent US20190233884A1 (University of Southern California, priority 2016, published 2019).

Tested on: patients with refractory metastatic colorectal cancer (mCRC)
Assay: PFS, OS and disease control in the testing (validation) cohort of refractory mCRC patients receiving TAS-102 (n=129, Italy), by baseline characteristics, SNP genotype and toxicity
Assay type: in vivo, human
Details: validation cohort
Procedure: All patients underwent the treatment in salvage-line setting. […]
Genomic DNA was extracted from peripheral whole blood in patients of all cohorts using the QIAmp Kit (Qiagen, Valencia, Calif., USA) according to the manufacturer's protocol (www.qiagen.com). The candidate SNPs were genotyped using PCR-based direct DNA sequence analysis by ABI 3100A Capillary Genetic Analyzer and Sequencing Scanner v1.0 (Applied Biosystems). Amplification of extracted DNA was carried out using both forward and reverse primers for each gene polymorphism as shown in Table 1. […] The investigators analyzing SNPs were blinded to the clinical data of the study patients.
The primary endpoint in this study was progression-free survival (PFS), and the secondary endpoints were overall survival (OS) and disease control rate (DCR). PFS was calculated from the date of starting treatment to the first observation of disease progression or death from any cause. If a patient had no disease progression or death, PFS was censored at the date of last follow up. OS was calculated from the date of starting treatment until the date of death from any cause or the date of the last follow-up, at which point OS was censored. The disease control rate (DCR) was defined as the proportion of patients who achieved a stable disease (SD) or […] according to RECISTv1.1. Chi-square test was used to examine the difference in baseline patient characteristics among the three cohorts. Allelic distribution of all SNPs by ethnicity for deviation from Hardy-Weinberg equilibrium and the allelic frequencies of SNPs were tested using the Chi-square tests with one degree of freedom. The associations between candidate SNPs and disease control, and toxicities were examined using contingency tables and Fisher's exact test. The associations of SNPs with PFS and OS were analysed using Kaplan-Meier curves and the log-rank test. Because the true mode of inheritance of candidate SNPs was not established yet, a codominant or dominant genetic model if appropriate was considered.
All patients underwent the treatment in salvage-line setting. […] In all patients, adverse events were graded according to the Common Terminology Criteria for Adverse Events, version 4.0. […]
Genomic DNA was extracted from peripheral whole blood in patients of all cohorts using the QIAmp Kit (Qiagen, Valencia, Calif., USA) according to the manufacturer's protocol (www.qiagen.com). The candidate SNPs were tested using PCR-based direct DNA sequence analysis by ABI 3100A Capillary Genetic Analyzer and Sequencing Scanner v1.0 (Applied Biosystems). […] The investigators analyzing SNPs were blinded to the clinical data.
The primary endpoint in this study was progression-free survival (PFS), and the secondary endpoints were overall survival (OS) and disease control rate (DCR).

[1] = ATM rs609429 C/G vs C/C (Ref.), multivariable
[2] = ATM rs609429 C/G vs C/C (Ref.), univariate
[3] = ATM rs609429 G/G vs C/C (Ref.), multivariable
[4] = ATM rs609429 G/G vs C/C (Ref.), univariate
[5] = Adjuvant Oxa No vs Yes (Ref.), univariate
[6] = Adjuvant history No vs Yes (Ref.), univariate
[7] = Age group ≥61 vs <61 (Ref.), univariate
[8] = BRAF status Mutant vs Wild type (Ref.), univariate
[9] = CHEK2 rs2267130 Any C vs T/T (Ref.), multivariable
[10] = CHEK2 rs2267130 Any C vs T/T (Ref.), univariate
[11] = CHEK2 rs2267130 C/C vs T/T (Ref.), multivariable
[12] = CHEK2 rs2267130 C/C vs T/T (Ref.), univariate
[13] = CHEK2 rs2267130 T/C vs T/T (Ref.), multivariable
[14] = CHEK2 rs2267130 T/C vs T/T (Ref.), univariate
[15] = Grading 3 vs 1-2 (Ref.), univariate
[16] = LN metastasis No vs Yes (Ref.), univariate
[17] = Liver metastasis No vs Yes (Ref.), univariate
[18] = Lung metastasis No vs Yes (Ref.), univariate
[19] = Mucinous histology No vs Yes (Ref.), univariate
[20] = Number of metastases >2 vs ≤2 (Ref.), univariate

## Trifluridine/tipiracil [TAS-102]
ATM rs609429 C/G
  Disease Control CR/PR/SD, patients n (%): 20 (32%)
  Median PFS (95% CI): 2.0 (1.9, 2.3) months
  PD, patients n (%): 43 (68%)
[1]
  HR OS (95% CI): 0.71 (0.39, 1.30)
  HR PFS (95% CI): 0.77 (0.50, 1.20)
[2]
  HR OS (95% CI): 0.71 (0.40, 1.26)
  HR PFS (95% CI): 0.76 (0.50, 1.16)
ATM rs609429 G/G
  Disease Control CR/PR/SD, patients n (%): 6 (40%)
  Median OS (95% CI): 5.8 (2.7, 7.1+) months
  Median PFS (95% CI): 2.0 (1.2, 6.1) months
  PD, patients n (%): 9 (60%)
[3]
  HR OS (95% CI): 1.43 (0.56, 3.65)
  HR PFS (95% CI): 1.32 (0.67, 2.59)
[4]
  HR OS (95% CI): 0.82 (0.34, 2.00)
  HR PFS (95% CI): 0.85 (0.45, 1.63)
Adjuvant Oxa No
  Median OS: 5.8 months
  Median PFS: 1.9 months
[5]
  HR OS: 1.17
  HR PFS: 1.06
Adjuvant Oxa Yes
  Median OS: 8.5+ months
  Median PFS: 2.0 months
Adjuvant history No
  Median OS: 5.5 months
  Median PFS: 1.9 months
[6]
  HR OS: 1.23
  HR PFS: 1.25
Adjuvant history Yes
  Median OS: 8.5+ months
  Median PFS: 2.0 months
Age group <61
  Median OS: 4.4 months
  Median PFS: 1.9 months
Age group ≥61
  Median OS: 9.0 months
  Median PFS: 2.0 months
[7]
  HR OS: 0.56
  HR PFS: 0.61
BRAF status Mutant
  Median OS: 3.3 months
  Median PFS: 1.8 months
[8]
  HR OS: 2.38
  HR PFS: 1.40
BRAF status Wild type
  Median OS: 5.8 months
  Median PFS: 2.0 months
CHEK2 rs2267130 Any C
  Disease Control CR/PR/SD, patients n (%): 29 (31%)
  Median OS (95% CI): 5.5 (4.4, 8.7+) months
  Median PFS (95% CI): 2.0 (1.8, 2.3) months
  PD, patients n (%): 65 (69%)
[9]
  HR OS (95% CI): 0.70 (0.38, 1.30)
  HR PFS (95% CI): 1.05 (0.66, 1.67)
[10]
  HR OS (95% CI): 0.94 (0.52, 1.69)
  HR PFS (95% CI): 1.10 (0.71, 1.72)
CHEK2 rs2267130 C/C
  Disease Control CR/PR/SD, patients n (%): 9 (29%)
  Median OS (95% CI): 5.4 (3.9, 7.1+) months
  Median PFS (95% CI): 2.0 (1.8, 2.4) months
  PD, patients n (%): 22 (71%)
[11]
  HR OS (95% CI): 0.48 (0.21, 1.09)
  HR PFS (95% CI): 0.87 (0.49, 1.54)
[12]
  HR OS (95% CI): 0.95 (0.45, 2.00)
  HR PFS (95% CI): 1.08 (0.62, 1.86)
CHEK2 rs2267130 T/C
  Disease Control CR/PR/SD, patients n (%): 20 (32%)
  Median PFS (95% CI): 2.0 (1.7, 2.3) months
  PD, patients n (%): 43 (68%)
[13]
  HR OS (95% CI): 0.83 (0.44, 1.58)
  HR PFS (95% CI): 1.17 (0.72, 1.91)
[14]
  HR OS (95% CI): 0.93 (0.50, 1.75)
  HR PFS (95% CI): 1.12 (0.69, 1.79)
CHEK2 rs2267130 T/T
  Disease Control CR/PR/SD, patients n (%): 8 (24%)
  Median OS (95% CI): 5.8 (3.7, 9.0+) months
  Median PFS (95% CI): 1.9 (1.9, 2.0) months
  PD, patients n (%): 26 (76%)
Grading 1-2
  Median OS: 9.0 months
  Median PFS: 2.1 months
Grading 3
  Median OS: 5.3 months
  Median PFS: 1.9 months
[15]
  HR OS: 1.38
  HR PFS: 1.15
LN metastasis No
  Median OS: 5.4 months
  Median PFS: 2.0 months
[16]
  HR OS: 1.24
  HR PFS: 0.99
LN metastasis Yes
  Median OS: 8.8+ months
  Median PFS: 2.0 months
Liver metastasis No
  Median OS: 8.7+ months
  Median PFS: 2.4 months
[17]
  HR OS: 0.69
  HR PFS: 0.52
Liver metastasis Yes
  Median OS: 5.4 months
  Median PFS: 1.9 months
Lung metastasis No
  Median OS: 4.1 months
  Median PFS: 1.9 months
[18]
  HR OS: 1.46
  HR PFS: 1.62
Lung metastasis Yes
  Median OS: 8.8+ months
  Median PFS: 2.1 months
Mucinous histology No
  Median OS: 9.0 months
  Median PFS: 2.0 months
[19]
  HR OS: 0.72
  HR PFS: 0.97
Mucinous histology Yes
  Median OS: 5.5 months
  Median PFS: 1.9 months
Number of metastases >2
  Median OS: 8.8+ months
  Median PFS: 2.0 months
[20]
  HR OS: 0.83
  HR PFS: 1.18
Number of metastases ≤2
  Median OS: 5.5 months
  Median PFS: 2.0 months
Performance status ECOG 0
  Median OS: 9.0 months
  Median PFS: 2.0 months
Performance status ECOG 1+
  Median OS: 4.1 months
  Median PFS: 1.9 months
